Data reported in paper PMC9972480, “Synthesis of Quinoline and Dihydroquinoline Embelin Derivatives as Cardioprotective Agents” (Journal of Natural Products, 2023).

Tests used:
[1] = MTT cell viability assay (cytotoxicity) in J774 macrophages; assay type: cell-based, murine; conditions: mouse
Procedure: (§1) The potential cytotoxicity of embelin (1) together with derivatives (4a–4m, 5a–5d, 6a–6m) was tested in cardiomyocytes and macrophages in order to ensure that compounds lack toxicity also in immune cells. Cell viability was determined by the MTT assay.[58] Four dihydroquinoline derivatives (4b, 4f, 4i, and 4m) and six quinoline compounds (6a, 6d, 6e, 6i, 6k, and 6m) maintained higher viable cell rates in both types of cells. IC50 values of these derivatives were higher than 40 μM and were selected for further analysis.
(§2) J774A.1 murine macrophage cells, H9c2 embryonic rat heart-derived cells, and MCF-7 breast cancer cells were purchased from American Type Cell Culture (ATCC, Manassas, VA, USA). Cells were cultured in Dulbecco’s modified Eagle medium with 10% fetal bovine serum and 1% penicillin/streptomycin (Lonza) and were maintained at 37 °C in a humidified incubator containing 5% CO2.
(§3) Cell viability was assessed by conducting an MTT [3-(4,5-dimethylthiazol-2-yl)-2,5-diphenyltetrazolium bromide dye] assay. Briefly, J 774A.1, H9c2, and MCF7 cells were seeded in 96-well plates for 24 h. Then, cells were treated with DOX in the absence or presence of compounds. MTT (Sigma) reagent was added to the medium for 1 h at 37 °C. Then, the formazan was dissolved in dimethyl sulfoxide (DMSO, 100 μL). Absorbance was measured at 540 nm with a microplate reader (BMG Labtech).

[2] = MTT cell viability assay (cytotoxicity) in H9c2 cardiomyocytes; assay type: cell-based, rat; conditions: rat, H9c2 cardiomyocytes, 24 h, MTT; for viability at 24 h, 10 µM / viability at 24 h, 20 µM: mean ± SD, n = 3; for IC50 at 24 h: H9c2 cardiomyocytes (embryonic heart-derived cells), stated for both types of cells
Procedure: as §1, §2, §3

[3] = system: MCF-7 human breast tumor cells; assay: Effect on chemotherapeutic activity of DOX, MTT; assay type: cell-based; conditions: MCF-7 cells, compound 20 μM + DOX 1 μM, 24 h
Procedure: Next, cytotoxicity of the selected compounds was also tested in MCF-7 breast cancer cells to disconfirm that protective effects might antagonize the antitumor effects of doxorubicin.
Figure 4 Effects of derivatives 4i, 6a, 6d, 6e, 6k, and 6m on the chemotherapeutic activity of DOX in MCF-7 human breast tumor cells. Cells were co-treated with selected compounds at 20 μM and DOX (1 μM) for 24 h. Cell viability was measured by MTT assay. Results are reported as mean of cell viability ± SD (n = 3). ****p < 0.0001 vs DOX-treated cells.
as §3

ROS in H9c2 cells = assay: Intracellular ROS levels, DCFH-DA assay; assay type: cell-based, rat; conditions: compound 20 μM + DOX 1 μM, 24 h, vs DOX-treated cells
Procedure: Oxidative stress is produced by an imbalance between radical oxygen species (ROS) formation and endogenous antioxidant activation in reaction to cell injury, leading to myocardial toxicity. Accordingly, DOX-induced ROS production in the H9c2 cells was quantified with the DCFH-DA fluorogenic dye. […] No effects on ROS production were observed when compounds were incubated alone with cells. […] The inhibitory effects of embelin derivatives were similar to those induced by N-acetyl-cysteine (NAC), a well-known antioxidant.
Figure 5 Derivatives 4i, 6a, 6d, 6k, and 6m reduced ROS levels produced by DOX in H9c2 cells. Levels of ROS in H9c2 cells were measured fluorometrically after treatment with DOX (1 μM) alone or co-treatment with N-acetyl cysteine (NAC, 1 mM) or selected derivatives (20 μM) for 24 h, using the 2′,7′-dichlorfluorescein-diacetate (DCFH-DA) assay. Values are expressed as mean ± SD with respect to DOX-treated cells (n = 3). ****p < 0.0001 vs DOX-treated cells.
Intracellular ROS levels in H9c2 cells were evaluated by monitoring the oxidation of 2′,7′-dichlorfluorescein-diacetate (DCFH-DA) (Sigma) to fluorescent dichlorofluorescein. Cells were treated with DOX (1 μM) in the absence or presence of compounds or NAC as ROS inhibitor (1 mM) (Sigma). Then, cells were incubated with 10 μM DCFH-DA at 37 °C in the dark for 30 min. ROS level was fluorimetrically evaluated at 485/550 nm during 24 h.

| melting point [°C] | SMILES | viability at 24 h, 10 µM [1] [%] | viability at 24 h, 20 µM [1] [%] | viability at 24 h, 10 µM [2] [%] | viability at 24 h, 20 µM [2] [%] | IC50 at 24 h [1] [µM] | IC50 at 24 h [2] [µM] | Effect on antitumor (chemotherapeutic) activity of DOX [3] | ROS production on co-treatment with DOX (ROS in H9c2 cells) |
| --- | --- | --- | --- | --- | --- | --- | --- | --- | --- |
| 164 to 166 | CCCCCCCCCCCC1=C(O)C(=O)C2=C(Nc3ccccc3C2c2ccc([N+](=O)[O-])cc2)C1=O (centres unmarked) [Compound 4a, 2-Hydroxy-9-(4-nitrophenyl)-3-undecyl-9,10-dihydroacridine-1,4-dione] | 50 ± 5.6 | 43.7 ± 2 | 94.8 ± 3.5 | 89.4 ± 0.6 |  |  |  |  |
| 161 to 162 | CCCCCCCCCCCC1=C(O)C(=O)C2=C(Nc3ccccc3C2c2ccccc2)C1=O (centres unmarked) [Compound 4b, 2-Hydroxy-9-phenyl-3-undecyl-9,10-dihydroacridine-1,4-dione] | 99.7 ± 1.1 | 98.7 ± 1.2 | 98.1 ± 6.8 | 95.8 ± 7.7 | > 40 | > 40 |  |  |
| 139 to 141 | CCCCCCCCCCCC1=C(O)C(=O)C2=C(Nc3ccccc3C2c2ccc(Cl)cc2)C1=O (centres unmarked) [Compound 4c, 2-Hydroxy-9-(4-chlorophenyl)-3-undecyl-9,10-dihydroacridine-1,4-dione] | 49.1 ± 3.4 | 39.5 ± 3.6 | 98.9 ± 3.4 | 93.9 ± 2.3 |  |  |  |  |
| 139 to 140 | CCCCCCCCCCCC1=C(O)C(=O)C2=C(Nc3ccccc3C2c2ccc(Br)cc2)C1=O (centres unmarked) [Compound 4d, 2-Hydroxy-9-(4-bromophenyl)-3-undecyl-9,10-dihydroacridine-1,4-dione] | 38.5 ± 5.9 | 32.9 ± 3.4 | 99.5 ± 2.7 | 98.9 ± 6.1 |  |  |  |  |
| 140 to 142 | CCCCCCCCCCCC1=C(O)C(=O)C2=C(Nc3ccccc3C2c2ccc(F)cc2)C1=O (centres unmarked) [Compound 4e, 2-Hydroxy-9-(4-fluorophenyl)-3-undecyl-9,10-dihydroacridine-1,4-dione] | 57.3 ± 3.8 | 44.6 ± 3.3 | 93.4 ± 7.2 | 83.7 ± 1.5 |  |  |  |  |
| 240 to 242 | CCCCCCCCCCCC1=C(O)C(=O)C2=C(Nc3ccccc3C2c2cccc(F)c2)C1=O (centres unmarked) [Compound 4f, 2-Hydroxy-9-(3-fluorophenyl)-3-undecyl-9,10-dihydroacridine-1,4-dione] | 99.5 ± 1.3 | 97.8 ± 0.6 | 88.7 ± 5.3 | 81.1 ± 2.9 | > 40 | > 40 |  |  |
| 146 to 148 | CCCCCCCCCCCC1=C(O)C(=O)C2=C(Nc3ccccc3C2c2ccc(C(=O)OC)cc2)C1=O (centres unmarked) [Compound 4g, Methyl 4-(2-hydroxy-1,4-dioxo-3-undecyl-1,4,9,10-tetrahydroacridin-9-yl)benzoate] | 31.2 ± 5.3 | 29.6 ± 3.9 | 72.6 ± 1.1 | 62.1 ± 1.3 |  |  |  |  |
| 190 to 192 | CCCCCCCCCCCC1=C(O)C(=O)C2=C(Nc3ccccc3C2c2ccsc2)C1=O (centres unmarked) [Compound 4h, 2-Hydroxy-9-(thiophen-3-yl)-3-undecyl-9,10-dihydroacridine-1,4-dione] | 84.9 ± 2.6 | 51.4 ± 2.9 | 92.5 ± 6.6 | 75.8 ± 2.3 |  |  |  |  |
| 152 to 154 | CCCCCCCCCCCC1=C(O)C(=O)C2=C(Nc3ccccc3C2c2ccc(OC)c(OC)c2)C1=O (centres unmarked) [Compound 4j, 2-Hydroxy-9-(3,4-dimethoxyphenyl)-3-undecyl-9,10-dihydroacridine-1,4-dione] | 89.1 ± 5.5 | 36.9 ± 3.8 | 68.9 ± 3.6 | 60.6 ± 4.9 |  |  |  |  |
| 153 to 155 | CCCCCCCCCCCC1=C(O)C(=O)C2=C(Nc3ccc(OC)cc3C2c2ccc([N+](=O)[O-])cc2)C1=O (centres unmarked) [Compound 4k, 2-Hydroxy-7-methoxy-9-(4-nitrophenyl)-3-undecyl-9,10-dihydroacridine-1,4-dione] | 55.6 ± 6.7 | 37.8 ± 4.8 | 99.7 ± 1.1 | 90.7 ± 1.5 |  |  |  |  |
| 260 to 262 | CCCCCCCCCCCC1=C(O)C(=O)C2=C(Nc3cc(C)cc(C)c3C2c2ccc([N+](=O)[O-])cc2)C1=O (centres unmarked) [Compound 4l, 2-Hydroxy-6,8-dimethyl-9-(4-nitrophenyl)-3-undecyl-9,10-dihydroacridine-1,4-dione] | 46.7 ± 6.6 | 33.1 ± 4.5 | 98.2 ± 6.6 | 88.3 ± 6.1 |  |  |  |  |
| 236 to 237 | CCCCCCCCCCCC1=C(O)C(=O)C2=C(Nc3ccc(Br)cc3C2c2ccc([N+](=O)[O-])cc2)C1=O (centres unmarked) [Compound 4m, 7-Bromo-2-hydroxy-9-(4-nitrophenyl)-3-undecyl-9,10-dihydroacridine-1,4-dione] | 94.7 ± 4.2 | 77.2 ± 4.9 | 96.5 ± 5.5 | 96.2 ± 4.8 | > 40 | > 40 |  |  |
|  | CCCCCCCCCCCC1=C(O)C(=O)c2c(nc3ccccc3c2-c2ccc([N+](=O)[O-])cc2)C1=O [Compound 6a, 2-Hydroxy-9-(4-nitrophenyl)-3-undecylacridine-1,4-dione] | 96.3 ± 2.1 | 76.9 ± 2.8 | 97.6 ± 7 | 87.8 ± 6.9 | > 40 | > 40 | without reducing DOX’s chemotherapeutic effect | significantly inhibited ROS production |
|  | CCCCCCCCCCCC1=C(O)C(=O)c2c(nc3ccccc3c2-c2ccc(Br)cc2)C1=O [Compound 6d, 2-Hydroxy-9-(4-bromophenyl)-3-undecylacridine-1,4-dione] | 82.1 ± 3.7 | 74.5 ± 3.9 | 99.4 ± 0.2 | 99.3 ± 2.6 | > 40 | > 40 | without reducing DOX’s chemotherapeutic effect | significantly inhibited ROS production |
|  | CCCCCCCCCCCC1=C(O)C(=O)c2c(nc3ccccc3c2-c2ccc(OC)c(OC)c2)C1=O [Compound 6j, 2-Hydroxy-9-(3,4-dimethoxyphenyl)-3-undecylacridine-1,4-dione] | 85.2 ± 3.7 | 64 ± 2.6 | 85.5 ± 6.2 | 68.4 ± 8.6 |  |  |  |  |
|  | CCCCCCCCCCCC1=C(O)C(=O)c2c(nc3cc(C)cc(C)c3c2-c2ccc([N+](=O)[O-])cc2)C1=O [Compound 6l, 2-Hydroxy-6,8-dimethyl-9-(4-nitrophenyl)-3-undecylacridine-1,4-dione] | 82.3 ± 0.3 | 63.8 ± 4.8 | 64.8 ± 6.7 | 55.9 ± 9.4 |  |  |  |  |
|  | CCCCCCCCCCCC1=C(O)C(=O)c2c(nc3ccc(Br)cc3c2-c2ccc([N+](=O)[O-])cc2)C1=O [Compound 6m, 7-Bromo-2-hydroxy-9-(4-nitrophenyl)-3-undecylacridine-1,4-dione] | 99.6 ± 4.6 | 86.4 ± 8.7 | 89.8 ± 7.6 | 85.9 ± 8.2 | > 40 | > 40 | without reducing DOX’s chemotherapeutic effect | significantly inhibited ROS production |
